Results on 13 molecules are retold here after patent US20140323511A1, “CHEMOTHERAPEUTIC FOR INDUCING AN MSH2 DEPENDENT APOPTOTIC PATHWAY” (Wake Forest University Health Sciences, priority 2013, published 2014).

The subject of series [1] is HEC59 cells (msh2 deficient). Kind of series: Cell viability assay (CellTiter 96 Aqueous One Solution), MSH2-deficient endometrial cells. Particulars: Homo sapiens; HEC59, drug 24 hours; graphs not reaching 50% mortality were extrapolated; NA = data did not reach below 50%, no extrapolation possible; read-out: 50IC MSH2 deficient. Type of series: cell-based. How it is done:
(§1) HEC59 cells (msh2 deficient) and the paired cell line HEC59 chr. that restores the MSH2-deficiency via chromosome transfer have been extensively characterized (Umar et al., 1997). Cells were grown in standard growth media (DMEM-F12+10% FBS). Cells were plated in microtiter plates at an appropriate concentration in 100 μl media and incubated overnight. Media was replaced with media containing drug and allowed to incubate for 24 hours at indicated concentrations. Untreated cells received fresh media with vehicle only. One solution reagent (CellTiter 96)(r) Aqueous One Solution) was added to existing media (20 μl/well) and allowed to incubate 3-4 hrs. A plate reader was used to record the absorbance at 490 nm. Assays were performed at least in triplicates. Cell viability at each concentration was analyzed for IC50 values using GraphPad Prism 4™. Graphs represent mean values and standard deviations.
(§2) We next tested these new rescinnamine analogs in a well-defined cellular system with an endometrial cell line deficient (HEC59) and proficient (via chromosome transfer, HEC59+chr.2) for MSH2. […] No significant difference was detected when determining the IC50 values.

Series [2] concerns HEC59+chr.2 (MSH2 proficient via chromosome transfer). As to the kind of experiment: Cell viability assay (CellTiter 96 Aqueous One Solution), MSH2-proficient endometrial cells. Type of series: cell-based. Particulars: Homo sapiens; HEC59+chr.2, drug 24 hours; graphs not reaching 50% mortality were extrapolated; NA = data did not reach below 50%, no extrapolation possible; read-out: 50IC MSH2 proficient. How it is done: as §1, §2

Another series deals with HEC59 and HEC59+chr.2. As to the kind of experiment: Cell viability compared between the paired MSH2-deficient and MSH2-proficient endometrial cell lines. Format: cell-based, human. Particulars: for cell killing: endometrial cell line deficient (HEC59) and proficient (HEC59+chr.2) for MSH2, data not shown; for change of IC50 when MSH2 is present: HEC59+chr.2 vs HEC59; for change in sensitivity to MSH2: comparison of isomers, MSH2 proficient vs deficient IC50; for difference between MSH2-proficiency and deficiency (MSH2-dependence of cell killing): HEC59 vs HEC59+chr.2. How it is done:
as §1, §2

In the next series the test system is ovarian cancer cells. As to the kind of experiment: Overcoming resistance to cisplatin in ovarian cancer cells. Format: cell-based. Particulars: data not shown.
The subject of another series is SW416 or HEC59 cells. As to the kind of experiment: Xenograft model. Type of series: in vivo, mice. Here is the method: SW416 or HEC59 cells in PBS mixed with Matrigel (1:1; BD Biosciences) were subcutaneously injected into the flank of nude donor mice. Tumors were grown for up to 3 weeks. Mice were euthanized, tumors excised, minced into 3 mm pieces, and surgically implanted into the right flank of acceptor mice (10 per group). Isoflurane anesthesia was provided during tumor inoculation. Injection of compounds was started 3 days following tumor implantation to allow recovery from surgery. Compounds were given intraperitoneally, in a volume of 0.5 ml/mouse with a ¼ inch, 23-gauge needle in a 6 ml plastic syringe. Mice were monitored based on survival and body weight. Tumor size, measured by caliper, and body weight were monitored […] for 57 days, and the prolongation of median survival time after ip treatment determined. Any animals showing signs of distress, unnatural movements, severe loss of appetite, severe signs of hypotension, tumor size of […], or weight loss exceeding 10% before the end of the study were euthanized. Tumors were measured twice a week for each group. Tumor volume is calculated as length(mm)×width (mm)^2. Initial measurements were performed when the tumor reached 150-200 mg. Tumor weight (in mg) is calculated as tumor weight (mg)[…](length(mm) of tumor×width (mm) of tumor^2)/2.

The subject of the next series is MSH2. Particulars: previously shown (Vasilyeva 2009, 2010); cited from earlier work.

Turning to `C=CC(=O)O[C@@H]1C[C@@H]2CN3CCc4c([nH]c5cc(OC)ccc45)[C@H]3C[C@@H]2[C@H](C(=O)OC)[C@H]1OC` [SA-I-03, Acryloyl Reserpate], the melting point (as a rule, the temperature of the solid-liquid transition) is > 260 °C. The IC50 in series [1] is 20.7 µM. Besides, the IC50 in series [2] is 20.4 µM. For the same molecule, the cell killing entry in the series on HEC59 and HEC59+chr.2 is given as “induced cell killing in the micromolar range”.

Take `COC(=O)c1cc(/C=C/C(=O)O[C@@H]2C[C@@H]3CN4CCc5c([nH]c6cc(OC)ccc56)[C@H]4C[C@@H]3[C@H](C(=O)OC)[C@H]2OC)ccc1OC` [SA-I-012]: the values for the IC50 in series [1] and in series [2] were 50.7 µM and 48.9 µM, respectively.

Take `COC(=O)[C@H]1[C@H]2C[C@@H]3c4[nH]c5cc(OC)ccc5c4CCN3C[C@H]2C[C@@H](OC(=O)/C=C/c2ccc(C(=O)O)c(OC)c2)[C@@H]1OC` [SA-I-013]: the IC50 in series [1] was 163 µM; in series [2], 1220 µM. In the series on HEC59 and HEC59+chr.2, the “change of IC50 when MSH2 is present” value was “reduction in IC50 when MSH2 is present”. In addition, in the series with HEC59 and HEC59+chr.2, the “change in sensitivity to MSH2” value is ~8 fold.

`COC(=O)[C@H]1[C@H]2C[C@@H]3c4[nH]c5cc(OC)ccc5c4CCN3C[C@H]2C[C@@H](OC(=O)/C=C/c2ccc(OC)c(C(=O)O)c2)[C@@H]1OC` [SA-I-015]: the IC50 in series [1] was 89.3 µM; in series [2], 84.2 µM.

`COC(=O)[C@H]1[C@H]2C[C@@H]3c4[nH]c5cc(OC)ccc5c4CCN3C[C@H]2C[C@@H](OC(=O)/C=C/c2ccc(O)c(OC)c2)[C@@H]1OC` [SA-I-016]: in the series on HEC59 and HEC59+chr.2, the “difference between MSH2-proficiency and deficiency (MSH2-dependence of cell killing)” value was “small difference between MSH2-proficiency and deficiency”.

Turning to `COC(=O)[C@H]1[C@H]2C[C@@H]3c4[nH]c5cc(OC)ccc5c4CCN3C[C@H]2C[C@@H](OC(=O)/C=C/c2ccc(OC)c(OC(C)=O)c2)[C@@H]1OC` [SA-I-019], the IC50 in series [1] is 39.3 µM. The cell killing result with HEC59 and HEC59+chr.2 was “induced cell killing in the micromolar range”.

Turning to `COC(=O)[C@H]1[C@H]2C[C@@H]3c4[nH]c5cc(OC)ccc5c4CCN3C[C@H]2C[C@@H](OC(=O)/C=C/c2ccc(OC)c(O)c2)[C@@H]1OC` [SA-I-020], the IC50 is 22.3 µM in series [1] and 21.3 µM in series [2]. Moreover, the cell killing entry in the series with HEC59 and HEC59+chr.2 is given as “induced cell killing in the micromolar range”.

Take `COC(=O)[C@H]1[C@H]2C[C@@H]3c4[nH]c5cc(OC)ccc5c4CCN3C[C@H]2C[C@@H](OC(=O)/C=C/c2cc(OC)c(O)c(OC)c2)[C@@H]1OC` [SA-I-027]: the IC50 in series [1] was 47.7 µM; in series [2], 54.5 µM. The cell killing result in the series with HEC59 and HEC59+chr.2 is listed as “induced cell killing in the micromolar range”.

For the molecule `COC(=O)[C@H]1[C@H]2C[C@@H]3c4[nH]c5cc(OC)ccc5c4CCN3C[C@H]2C[C@@H](OC(=O)/C=C/c2ccc(OC)c(N)c2)[C@@H]1OC` [SA-I-029], in series [1], the IC50 is 77.2 µM. In addition, the IC50 in series [2] was 113 µM. In the series with HEC59 and HEC59+chr.2, the “change of IC50 when MSH2 is present” value is reported as “reduction in IC50 when MSH2 is present” and the “change in sensitivity to MSH2” value was ~2 fold.

Consider `COC(=O)[C@H]1[C@H]2C[C@@H]3c4[nH]c5cc(OC)ccc5c4CCN3C[C@H]2C[C@@H](OC(=O)/C=C/c2ccc(N)c(OC)c2)[C@@H]1OC` [SA-I-039], for which, in series [1], the IC50 was 85.7 µM. Further, the IC50 in series [2] is 68.4 µM. Further, in the series with HEC59 and HEC59+chr.2, the “difference between MSH2-proficiency and deficiency (MSH2-dependence of cell killing)” value was “small difference between MSH2-proficiency and deficiency”; the “change in sensitivity to MSH2” value is on record as ~2 fold; the cell killing entry is on record as “induced cell killing in the micromolar range”.

Take `CCC(=O)O[C@@H]1C[C@@H]2CN3CCc4c([nH]c5cc(OC)ccc45)[C@H]3C[C@@H]2[C@H](C(=O)OC)[C@H]1OC` [SA-I-058, Propionoyl Reserpate]: the melting point worked out at 258 °C.

Consider `COC(=O)[C@H]1[C@H]2C[C@@H]3c4[nH]c5cc(OC)ccc5c4CCN3C[C@H]2C[C@@H](OC(=O)/C=C/c2cc(OC)c(OC)c(OC)c2)[C@@H]1OC` [rescinnamine], for which the “overcoming resistance to cisplatin” value in the series on ovarian cancer cells is reported as “capable of overcoming resistance to cisplatin in ovarian cancer cells”. The “hypotensive activity limiting the dose” value in the series on SW416 or HEC59 cells is recorded as “hypotensive activity of the drug prevented administration of statistically effective doses”. Also, the tumor inhibition entry in the series on SW416 or HEC59 cells (data not shown) is reported as “significant trend toward tumor inhibition”. Further, the “induction of MSH2-dependent cell death” value in the series with MSH2 is listed as “capable of inducing cell death in an MSH2-dependent manner”.

As to `COC(=O)[C@H]1[C@H]2C[C@@H]3c4[nH]c5cc(OC)ccc5c4CCN3C[C@H]2C[C@@H](OC(=O)c2cc(OC)c(OC)c(OC)c2)[C@@H]1OC` [reserpine], the “induction of MSH2-dependent cell death” value with MSH2 is “capable of inducing cell death in an MSH2-dependent manner”.
